The nature of series [1]: LD50 p.o. in rats (acute toxicity). Particulars: rat, in vivo, po.
Another series relates to carrageenin edema. The experiment in a line: carrageenin edema test in rats (antiinflammatory activity). Format: in vivo. As to conditions: Rattus norvegicus, po, read-out: % Decrease of the edema; for inhibition in vivo at 50 mg/kg: dose 50 mg/kg p.o. in rats; for inhibition in vivo at 200 mg/kg: dose 200 mg/kg p.o. in rats; for inhibition in vivo at 100 mg/kg: dose 100 mg/kg p.o. in rats. The source says: The anti-inflamatory activity of the indole derivatives is evidenced by means of the carrageenin edema test in rats. In representative experiments compounds of formula I provoked a substantial decrease of the induced edema at dosage levels from about one fifth to about one tenth of their respective LD50 values. The following table reports the results of the experiments:
The following table reports the percent inhibitory effect of some representative compounds of the formula II in the carrageenin edema test.
Background: In the carrageenan paw model, swelling and tenderness develop within hours.

Series [2] has as its system pain threshold of inflammed foot of the rat. The experiment in a line: analgesic effect on pain threshold of inflamed foot of the rat (Randall and Selitto). Format: in vivo. Particulars: vs acetylsalicylic acid.
Where [3] appears, read: compounds of the examples (formula I).

Structures can show the parent of a compound that is named as a salt. Where two headings read alike, the source gives them in different places. Bounds are passed on as bounds.

As usually defined, the LD50 is the dose expected to kill half of the subjects tested. A low value points to a more toxic substance. `COc1ccc(N(C)NC(=O)C(C)C)cc1` [1-(p-Methoxyphenyl)-1-methyl-2-isobutyrylhydrazine] registered an LD50 in series [1] (hydrazines of formula II) of 500 mg/kg. Also, the inhibition in vivo at 50 mg/kg in the series on carrageenin edema (hydrazines of formula II) stood at 30%.
`CN(NC(=O)CCCN1C(=O)c2ccccc2C1=O)c1ccccc1` [1-Phenyl-1-methyl-1-( -phthalimido-butyryl)-hydrazine] showed an LD50 in series [1] (hydrazines of formula II) of more than 1000 mg/kg. Besides, the inhibition in vivo at 200 mg/kg in the series on carrageenin edema (hydrazines of formula II) worked out at 28%.
In series [1] (hydrazines of formula II), `CCC(C)C(=O)NN(C)c1ccccc1` (stereo not drawn) [1-Phenyl-1-methyl-2-(2-methylbutyryl)-hydrazine] returned an LD50 of more than 1000 mg/kg. For the same compound, the inhibition in vivo at 100 mg/kg in the series with carrageenin edema (hydrazines of formula II) was found to be 40%.
`CC(=O)NN(C)c1ccccc1` [1-Phenyl-1-methyl-2-acetylhydrazine]: in series [1] (hydrazines of formula II), the LD50 worked out at 500 mg/kg. In the series with carrageenin edema (hydrazines of formula II), the inhibition in vivo at 50 mg/kg was 57%.
For `CN(NC(=O)C1CCCCC1)c1ccccc1` [1-Phenyl-1-methyl-2-cyclohexanoyl hydrazine] the same measures were 500 mg/kg and 37%.
`CN(NC(=O)C1CCCC1)c1ccccc1` [1-Phenyl-1-methyl-2-cyclopentanoylhydrazine] gave an LD50 in series [1] (hydrazines of formula II) of 500 mg/kg. The inhibition in vivo at 50 mg/kg in the series with carrageenin edema (hydrazines of formula II) was 37%.
As to `CN(NC(=O)C1CC1)c1ccccc1` [1-Phenyl-1-methyl-2-cyclopropanoylhydrazine], the LD50 in series [1] (hydrazines of formula II) was 500 mg/kg. Besides, in the series on carrageenin edema (hydrazines of formula II), the inhibition in vivo at 50 mg/kg turned out to be 35%.
For `CC(C)C(=O)NN(C)c1ccccc1` [1-Phenyl-1-methyl-2-isobutyrylhydrazine] the same measures were 500 mg/kg and 36%.
For `CCC(=O)NN(C)c1ccccc1` [1-Phenyl-1-methyl-2-propionylhydrazine] the same measures were 500 mg/kg and 30%.
`COc1cccc(-c2c(N)n(C)c3ccccc23)c1` [Example 9, 2-amino-3-(m-anisyl)-1-methylindole hydrochloride] had an LD50 in series [1] (setting [3]) of more than 1000 mg/kg. Further, in the series on carrageenin edema (setting [3]), the inhibition in vivo at 100 mg/kg was 30% and the inhibition in vivo at 200 mg/kg amounted to 41%.
With `CN1C(=N)C2(CCCCC2)c2ccccc21` [Example 13, 2'-imino-1'-methyl-spyro(cyclohexane-1,3'-indoline)hydrochloride], in series [2], the “analgesic activity relative to acetylsalicylic acid (times as active)” value is “about 25 times”. Besides, in series [1] (setting [3]), the LD50 stood at 100 mg/kg. Besides, the inhibition in vivo at 8 mg/kg in the series with carrageenin edema (compounds of the examples (formula I), dose 8 mg/kg p.o. in rats) came to 45%. For the same compound, in the series on carrageenin edema (compounds of the examples (formula I), dose 20 mg/kg p.o. in rats), the inhibition in vivo at 20 mg/kg was 60%.
The compound `CN1C(=NC(=O)c2ccccc2)C(C)(C)c2ccccc21` [Example 28, 2-Benzoylimino-1,3,3-trimethylindoline] showed an LD50 in series [1] (setting [3]) of more than 1000 mg/kg. Besides, in the series with carrageenin edema (setting [3]), the inhibition in vivo at 100 mg/kg came to 35% and the inhibition in vivo at 200 mg/kg was 45%.
`Cn1c(NC(=O)Nc2ccccc2)c(-c2ccc(Cl)cc2)c2ccccc21` [Example 34, 3-(p-Chlorophenyl)-1-methyl-2-phenylureidoindole] yielded an LD50 in series [1] (setting [3]) of more than 1000 mg/kg. Moreover, the inhibition in vivo at 200 mg/kg in the series on carrageenin edema (setting [3]) worked out at 33%.

The values above are taken from patent publication US3984563A, “Antiinflammatory 2-imino-indolines and their pharmaceutical compositions” (Gruppo Lepetit S.p.A., priority 1973, dated 1976).
